Experimental data from ChEMBL document CHEMBL4052628, “Synthesis and cytotoxicity of a novel series of saframycin-ecteinascidin analogs containing tetrahydro-β-carboline moieties” (Eur J Med Chem, 2017).

Columns and labels:
Type in all cases: functional, cell-based
[1] = system: BGC-823; test: Cytotoxicity against human BGC823 cells assessed as reduction in cell viability after 72 hrs by MTT assay; conditions: BGC-823, 72 h
[2] = system: HepG2; test: Cytotoxicity against human HepG2 cells assessed as reduction in cell viability after 72 hrs by MTT assay; conditions: HepG2, 72 h
[3] = system: MCF7; test: Cytotoxicity against human MCF7 cells assessed as reduction in cell viability after 72 hrs by MTT assay; conditions: MCF7, 72 h
[4] = system: HCT-116; test: Cytotoxicity against human HCT116 cells assessed as reduction in cell viability after 72 hrs by MTT assay; conditions: HCT-116, 72 h
[5] = system: A2780; test: Cytotoxicity against human A2780 cells assessed as reduction in cell viability after 72 hrs by MTT assay; conditions: A2780, 72 h
[6] = system: HT-29; test: Cytotoxicity against human HT-29 cells assessed as reduction in cell viability after 72 hrs by MTT assay; conditions: HT-29, 72 h

SMILES | IC50 [1] [nM] | IC50 [2] [nM] | IC50 [3] [nM] | IC50 [4] [nM] | IC50 [5] [nM] | IC50 [6] [nM]
CN1[C@@H]2c3[nH]c4ccccc4c3C[C@H]1[C@H](C#N)N1[C@@H](CNC(=O)c3cc4ccccc4s3)c3[nH]c4ccccc4c3C[C@@H]21 | 240 | 300 | 3180 | 500 | 20 | 640
CN1[C@@H]2c3[nH]c4ccccc4c3C[C@H]1[C@H](C#N)N1[C@@H](CNC(=O)c3ccccc3)c3[nH]c4ccccc4c3C[C@@H]21 | 740 | 250 | 9670 | 430 | 200 | 140
COc1ccc(/C=C/C(=O)NC[C@H]2c3[nH]c4ccccc4c3C[C@H]3[C@H]4c5[nH]c6ccccc6c5C[C@@H]([C@H](C#N)N23)N4C)cc1 | 5450 | 2140 | 4220 | 5060 | 860 | 3060
CN1[C@@H]2c3[nH]c4ccccc4c3C[C@H]1[C@H](C#N)N1[C@@H](CNC(=O)c3cc4ccccc4[nH]3)c3[nH]c4ccccc4c3C[C@@H]21 | 1690 | 440 | 9780 | 880 | 7100 | 1220
CN1[C@@H]2c3[nH]c4ccccc4c3C[C@H]1[C@H](C#N)N1[C@@H](CNC(=O)c3ccc(F)cc3)c3[nH]c4ccccc4c3C[C@@H]21 | 310 | 210 | 980 | 140 | 250 | 1370
CN1[C@@H]2c3[nH]c4ccccc4c3C[C@H]1[C@H](C#N)N1[C@@H](CNC(=O)c3cccs3)c3[nH]c4ccccc4c3C[C@@H]21 | 280 | 180 | 470 | 550 | 230 | 1330
CN1[C@@H]2c3[nH]c4ccccc4c3C[C@H]1[C@H](C#N)N1[C@@H](CNC(=O)/C=C/c3ccccc3)c3[nH]c4ccccc4c3C[C@@H]21 | 4300 | 470 | 7190 | 1960 | 770 | 1400
CN1[C@@H]2c3[nH]c4ccccc4c3C[C@H]1[C@H](C#N)N1[C@@H](CN3C(=O)c4ccccc4C3=O)c3[nH]c4ccccc4c3C[C@@H]21 | 410 | 20 | 610 | 40 | 80 | 80
CN1[C@@H]2c3[nH]c4ccccc4c3C[C@H]1[C@H](C#N)N1[C@@H](CNC(=O)/C=C/c3cccc(C(F)(F)F)c3)c3[nH]c4ccccc4c3C[C@@H]21 | 910 | 540 | 110 | 610 | > 10000 | 5060
CN1[C@@H]2c3[nH]c4ccccc4c3C[C@H]1[C@H](C#N)N1[C@@H](CNC(=O)c3cccc4c3CCCC4)c3[nH]c4ccccc4c3C[C@@H]21 | 3540 | 540 | 4470 | 4210 | 810 | 3340
CN1[C@@H]2c3[nH]c4ccccc4c3C[C@H]1[C@H](C#N)N1[C@@H](CNC(=O)c3ccc4ccccc4n3)c3[nH]c4ccccc4c3C[C@@H]21 | 80 | 110 | 150 | 240 | 60 | 150
CN1[C@@H]2c3[nH]c4ccccc4c3C[C@H]1[C@H](C#N)N1[C@@H](CNC(=O)c3ccc(Cl)cc3)c3[nH]c4ccccc4c3C[C@@H]21 | 110 | 350 | 610 | 630 | 230 | 130
CN1[C@@H]2c3[nH]c4ccccc4c3C[C@H]1[C@H](C#N)N1[C@@H](CNC(=O)c3cc4ccccc4o3)c3[nH]c4ccccc4c3C[C@@H]21 | 210 | 280 | 320 | 330 | 230 | 850
COc1ccc(C(=O)NC[C@H]2c3[nH]c4ccccc4c3C[C@H]3[C@H]4c5[nH]c6ccccc6c5C[C@@H]([C@H](C#N)N23)N4C)cc1 | 320 | 310 | 600 | 430 | 320 | 840
CC(=O)NC[C@H]1c2[nH]c3ccccc3c2C[C@H]2[C@H]3c4[nH]c5ccccc5c4C[C@@H]([C@H](C#N)N12)N3C | 2200 | 420 | 5300 | 4340 | 630 | 1180
CN1[C@@H]2c3[nH]c4ccccc4c3C[C@H]1[C@H](C#N)N1[C@@H](CNC(=O)c3ccco3)c3[nH]c4ccccc4c3C[C@@H]21 | 300 | 250 | 160 | 170 | 120 | 100
CCc1ccc(C(=O)NC[C@H]2c3[nH]c4ccccc4c3C[C@H]3[C@H]4c5[nH]c6ccccc6c5C[C@@H]([C@H](C#N)N23)N4C)cc1 | 660 | 570 | 170 | 100 | 670 | 3560
CN1[C@@H]2c3[nH]c4ccccc4c3C[C@H]1[C@H](C#N)N1[C@@H](CNC(=O)c3cccc(C(F)(F)F)c3)c3[nH]c4ccccc4c3C[C@@H]21 | 870 | 340 | 110 | 630 | 210 | 140
CN1[C@@H]2c3[nH]c4ccccc4c3C[C@H]1[C@H](C#N)N1[C@@H](CNC(=O)c3ccccn3)c3[nH]c4ccccc4c3C[C@@H]21 | 80 | 70 | 40 | 40 | 30 | 70
CN1[C@@H]2c3[nH]c4ccccc4c3C[C@H]1[C@H](C#N)N1[C@@H](CNC(=O)c3ccc4ccccc4c3)c3[nH]c4ccccc4c3C[C@@H]21 | 1110 | 1210 | 4650 | 420 | 1030 | 4940
